Test results as given in US7067251B2 (priority 2000, dated 2006).

Key:
vEL/tk = assay type: cell-based, vaccinia virus
v7.5/tk = assay type: cell-based, vaccinia virus
vaccinia WR = assay type: cell-based, vaccinia virus
naïve T cells = assay type: cell-based, Human
[1] = test system: Mouse splenic T cells activated by plate bound anti-CD3 antibody; conditions: cited from earlier work

Structure (SMILES) | Concentration sufficient to inhibit plaque formation (vEL/tk) [mM] | Plaque formation (vEL/tk) | Concentration sufficient to inhibit plaque formation (v7.5/tk) [mM] | Concentration sufficient to interfere with the ability to plaque (vaccinia WR) [mM] | Viability of the cells (Hutk^− cell line) | Killing of the total number of T cells (naïve T cells) [%] | T cell death [1] [%]
O=c1[nH]c(=O)n([C@H]2C[C@H](O)[C@@H](CO)O2)cc1Br [bromodeoxyuridine] | 125 | an equal number of plaques, albeit much smaller in size | 125 | 25 | does not interfere with the viability of the cells | – | –
Cn1cc(C2=C(c3cn(CCCN)c4ccccc34)C(=O)NC2=O)c2ccccc21 [Bis VIII, Bisindolylmaleimide VIII] | – | – | – | – | – | 95 | ~100
